Literature values as cited in patent US20240093135A1, “BASE ELEMENT OF A MULTI-CHAMBER BIOCHIP, PRODUCTION OF THE MULTI-CHAMBER BIOCHIP, AND USE THEREOF FOR ESTABLISHING ORGAN AND DISEASE MODELS AND SUBSTANCE TESTS” (Dynamic42 GmbH, priority 2022, published 2024).

Conditions: PDMS chips, after 24 hours

Compound: CCCC1COC(Cn2cncn2)(c2ccc(Cl)cc2Cl)O1 (stereo not shown) [propiconazole]
- detectable share of the starting concentration in the culture medium: less than 30%
